Key:
BEAS2B cells = assay: Poly I:C-induced ICAM-1 expression in BEAS2B cells; assay type: cell-based; conditions: Homo sapiens, BEAS-2B, read-out: PolyIC/ICAM1 IC50 (BEAS2B)
Description: Poly I:C was used in these studies as a simple, RNA virus mimic. Poly I:C-Oligofectamine mixture (1 μg/mL Poly I:C, ±2% Oligofectamine, 25 μL; Invivogen Ltd., San Diego, Calif., and Invitrogen, Carlsbad, Calif., respectively) was transfected into BEAS2B cells (human bronchial epithelial cells, ATCC). Cells were pre-incubated with final concentrations of test compounds for 2 hr and the level of ICAM-1 expression on the cell surface was determined by cell-based ELISA. […]
The cells were washed with PBS-Tween (3×200 μL) and incubated with the secondary antibody (100 μL; HRP-conjugated anti-rabbit IgG, Dako Ltd., Glostrup, Denmark). […] The ICAM-1 signal was detected by reading […] the absorbance at 450 nm against a reference wavelength of 655 nm using a spectrophotometer. The cells were then washed with PBS-Tween (3×200 μL) and total cell numbers in each well were determined by reading absorbance at 595 nm after Crystal Violet staining (50 μL of a 2% solution in PBS) and elution by 1% SDS solution (100 μL) in distilled water. The measured OD 450-655 readings were corrected for cell number by dividing with the OD595 reading in each well. The inhibition of ICAM-1 expression was calculated at each concentration of test compound by comparison with vehicle control.

[1] = test system: LPS-induced neutrophil accumulation; assay: LPS-induced neutrophil accumulation in mice; assay type: in vivo, Balb/c mice
Description: […] At T=0, mice were placed into an exposure chamber and exposed to LPS (7.0 mL, 0.5 mg/mL solution in PBS) for 30 min). After a further 8 hr the animals were anesthetized, their tracheas cannulated and BALF extracted by infusing and then withdrawing from their lungs 1.0 mL of PBS via the tracheal catheter. Total and differential white cell counts in the BALF samples were measured using a Neubaur haemocytometer. Cytospin smears of the BALF samples were prepared by centrifugation at 200 rpm for 5 min at RT and stained using a DiffQuik stain system (Dade Behring). Cells were counted using oil immersion microscopy. Data for neutrophil numbers in BAL are shown as mean±S.E.M. (standard error of the mean). The percentage inhibition of neutrophil accumulation was calculated for each treatment relative to vehicle treatment.

[2] = 0.05 mg/mL intra tracheal, 2 hr pre-dose

Cc1ccc(-n2nc(C(C)(C)C)cc2NC(=O)Nc2ccc(Oc3ccnc(Nc4ccccc4)n3)c3ccccc23)cc1 [Compound (I), 1-(3-(tert-Butyl)-1-(p-tolyl)-1H-pyrazol-5-yl)-3-(4-((2-(phenylamino)pyrimidin-4-yl)oxy)naphthalen-1-yl)urea]
IC50 (BEAS2B cells): 10.2 nM | % inhibition of neutrophil accumulation [1, 2]: 18% | Neutrophil numbers in BALF [1, 2]: 15.6 ± 2.1 ×10^5/mL | % inhibition of neutrophil accumulation ([1]; 0.2 mg/mL, 2 hr pre-dose): 48% | Neutrophil numbers in BALF ([1]; 0.2 mg/mL, 2 hr pre-dose): 9.8 ± 1.6 ×10^5/mL | % inhibition of neutrophil accumulation ([1]; 1.0 mg/mL, 2 hr pre-dose): 77% | Neutrophil numbers in BALF ([1]; 1.0 mg/mL, 2 hr pre-dose): 4.4 ± 0.89 ×10^5/mL | % inhibition of neutrophil accumulation ([1]; 1.0 mg/mL, 8 hr pre-dose): 48% | Neutrophil numbers in BALF ([1]; 1.0 mg/mL, 8 hr pre-dose): 9.9 ± 1.8 ×10^5/mL | % inhibition of neutrophil accumulation ([1]; 1.0 mg/mL, 12 hr pre-dose): 4% | Neutrophil numbers in BALF ([1]; 1.0 mg/mL, 12 hr pre-dose): 18.3 ± 2.3 ×10^5/mL | duration of action (time course experiment) ([1]; mice): long duration of action | effect on LPS-induced neutrophil accumulation ([1]; mice): dose dependent inhibition

— patent US9108950B2, “1-pyrazolyl-3-(4-((2-anilinopyrimidin-4-yl)oxy)napththalen-1-yl) ureas as p38 MAP kinase inhibitors” (Respivert Ltd., priority 2011, dated 2015)
